Results published in patent US10077258B2, “Substituted pyrimidine compounds as phosphatidylinositol 3-kinase delta inhibitor and use thereof” (NANJING SANHOME PHARMACEUTICAL CO., LTD., priority 2015, dated 2018).

Experiments:
PI3Kδ = molecular target: T1, PI3Kδ (Homo sapiens, UniProt O00329); assay: In vitro kinase activity (LabChip EZ Reader mobility shift), PI3Kδ; assay type: biochemical; conditions: for IC50: kinase subtype PI3Kδ (p110δ/p85a)
T1 construct: purchased Millipore 14-604-K
Experimental: (§1) Compounds: the compounds prepared in above examples of the present invention, each of which was prepared to a concentration of 10 mM in DMSO and diluted to […], 100 nM, 10 nM, 1 nM, 0.1 nM, 0.01 nM successively.
(§2) Reagents: PI3Kα (p110α(p85a), purchased from Invitrogen, Cat.No. PV4788; PIK3Cδ (p110δ/p85a), purchased from Millipore, Cat.No. 14-604-K; PIK3Cβ (p110β), purchased from Millipore, Cat.No. 14-603-K; PIK3Cγ (pp110γ), purchased from Invitrogen, Cat.No. PR8641C; DMSO, purchased from Sigma; EDTA, purchased from Sigma; 1× kinase buffer (50 mM HEPES, pH 7.5, 0.0015% Brij-35, 10 mM MgCl2, 2 mM DTT), which was prepared before use; termination solution (100 mM HEPES, pH 7.5, 0.015% Brij-35, 0.2% Coating Reagent#3, 50 mM EDTA), which was prepared before use.
(§3) Instruments: LabChip EZ Reader purchased from Caliper, USA.
(§4) 2.1 10 μl solution of each concentration of each compound was placed into 96-well plate and 90 μl of 1× kinase buffer was added. DMSO control group and control group without kinase activity were set up, which all contained 10 μl DMSO and 90 μl of 1× kinase buffer. Each group was mixed well at room temperature for 10 min, and then 5 μl of each group was transferred to a 384-well plate.
(§5) 2.2 Kinases were dissolved in 1× kinase buffer to prepare a 2.5× kinase solution. 10 μl of 2.5× kinase solution was transferred to the 384-well plate containing compounds of different concentrations. 10 μl of 2.5× kinase solution was added to DMSO control group and 10 μl of 1× kinase buffer without kinase was added to control group without kinase activity. The plate was incubated at room temperature for 10 min.
(§6) 2.3 ATP and the polypeptide labeled with FAM were dissolved in 1× kinase buffer to prepare 2.5× substrate solution. Then 10 μl of 2.5× substrate solution was transferred to the 384-well plate and incubated at 28° C. for 1 h.
(§7) 2.4 25 μl of termination solution was added to each well to terminate the reaction.
(§8) 2.5 The plate was placed on the LabChip EZ Reader to read the data of conversion rate and inhibitory rate (1%) was calculated according to formula: I %=(Max−Com)/(Max−Min)×100, wherein Max was the conversion rate of DMSO control group, Min was the conversion rate of control group without kinase activity, Com was the conversion rate of compound treatment group. IC50 was fitted by XLfit processing of the data.

PI3Kα = molecular target: T2, PI3Kα (Homo sapiens, UniProt P42336); assay: In vitro kinase activity (LabChip EZ Reader mobility shift), PI3Kα; assay type: biochemical; conditions: kinase subtype PI3Kα (p110α/p85a)
T2 construct: purchased Invitrogen PV4788
Experimental: as §1, §2, §3, §4, §5, §6, §7, §8

SU-DHL-5 lymphoma cells = assay: In vitro cell activity, CellTiter-Glo cell viability, SU-DHL-5; assay type: cell-based; conditions: Homo sapiens, SU-DHL-5 lymphoma cell line, 72 h
Experimental: Compounds: the compounds prepared in above examples of the present invention, each of which was prepared to a concentration of 10 mM in DMSO and diluted 3 times to 20000.00 nM, 6666.67 nM, 2222.22 nM, 740.74 nM, 246.91 nM, 27.43 nM, 9.14 nM, 3.05 nM successively.
The lymphoma cell lines SU-DHL-5 and SU-DHL-6 were purchased from the American Type Culture Collection (ATCC).
Reagents: PRMI-1640, purchased from Invitrogen (USA); FBS, purchased from Invitrogen (USA); EDTA, purchased from Sigma (USA); CellTiter-Glo® Luminescent Cell Viability Assay Kit, purchased from Progema (USA); Backseal membrane, purchased from Perkin Elmer (USA).
The cells were thawed in a 37° C. water bath and then transferred to 15 ml preheated medium. The cells were centrifuged at 1000 rpm for 5 min and the medium was discarded. The cells were resuspended in 15 ml fresh medium and transferred to T75 culture flask and incubated in an incubator at 37° C. with 5% CO2. The medium was replaced with fresh medium 24 h later.
The resuscitated cells above were transferred to a 50 ml sterile centrifuge tube and centrifuged at 1000 rpm for 5 min. The medium was discarded, and the cells were dispersed uniformly and counted. The appropriate cell concentration was adjusted in 15 ml fresh medium and added to T75 culture flask. The flask was incubated in an incubator at 37° C. with 5% CO2.
When the cells in the T75 culture flask grew to 1×10^5˜1×10^6 cells/ml, the cells were resuspended with fresh medium (RPMI-1640+20% FBS) and counted. The resuspended cells were adjusted to the following eight concentrations: 1×10^4 cells/ml, 2×10^4 cells/ml, 3×10^4 cells/ml, 5×10^4 cells/ml, 8×10^4 cells/ml, 1×10^5 cells/ml, 1.5×10^5 cells/ml, and 2×10^5 cells/ml. The above cell suspensions were added to 96-well cell culture plate, 100 μl each well (1×10^3 cells/ml, 2×10^3 cells/ml, 3×10^3 cells/ml, 5×10^3 cells/ml, 8×10^3 cells/ml, 1×10^4 cells/ml, 1.5×10^4 cells/ml, and 2×10^4 cells/ml, respectively). Each concentration was done double in three plates. 72 h later, 100 μl CellTiter-Glo® Luminescent Cell Viability Assay buffer was added to test wells and shaken gently. 10 min later, the Assay plate was attached at the bottom by Backseal membrane and placed on Envison to detect the fluorescence reading. Cell survive (%) was calculated according to the formula: cell survive (%)=(Com−Min)/(Max−Min), wherein Max was the reading of solvent control group, Min was the reading of control group without cells, and Com was the reading of compound treatment group.

PI3Kβ = molecular target: T3, PI3Kβ (Homo sapiens, UniProt P42338); assay: In vitro kinase activity (LabChip EZ Reader mobility shift), PI3Kβ; assay type: biochemical; conditions: kinase subtype PI3Kβ (p110β)
T3 construct: purchased Millipore 14-603-K
Experimental: as §1, §2, §3, §4, §5, §6, §7, §8

PI3Kγ = molecular target: T4, PI3Kγ (Homo sapiens, UniProt P48736); assay: In vitro kinase activity (LabChip EZ Reader mobility shift), PI3Kγ; assay type: biochemical; conditions: kinase subtype PI3Kγ (p110γ)
T4 construct: purchased Invitrogen PR8641C
Experimental: as §1, §2, §3, §4, §5, §6, §7, §8

T4 sequence (P48736 whole entry): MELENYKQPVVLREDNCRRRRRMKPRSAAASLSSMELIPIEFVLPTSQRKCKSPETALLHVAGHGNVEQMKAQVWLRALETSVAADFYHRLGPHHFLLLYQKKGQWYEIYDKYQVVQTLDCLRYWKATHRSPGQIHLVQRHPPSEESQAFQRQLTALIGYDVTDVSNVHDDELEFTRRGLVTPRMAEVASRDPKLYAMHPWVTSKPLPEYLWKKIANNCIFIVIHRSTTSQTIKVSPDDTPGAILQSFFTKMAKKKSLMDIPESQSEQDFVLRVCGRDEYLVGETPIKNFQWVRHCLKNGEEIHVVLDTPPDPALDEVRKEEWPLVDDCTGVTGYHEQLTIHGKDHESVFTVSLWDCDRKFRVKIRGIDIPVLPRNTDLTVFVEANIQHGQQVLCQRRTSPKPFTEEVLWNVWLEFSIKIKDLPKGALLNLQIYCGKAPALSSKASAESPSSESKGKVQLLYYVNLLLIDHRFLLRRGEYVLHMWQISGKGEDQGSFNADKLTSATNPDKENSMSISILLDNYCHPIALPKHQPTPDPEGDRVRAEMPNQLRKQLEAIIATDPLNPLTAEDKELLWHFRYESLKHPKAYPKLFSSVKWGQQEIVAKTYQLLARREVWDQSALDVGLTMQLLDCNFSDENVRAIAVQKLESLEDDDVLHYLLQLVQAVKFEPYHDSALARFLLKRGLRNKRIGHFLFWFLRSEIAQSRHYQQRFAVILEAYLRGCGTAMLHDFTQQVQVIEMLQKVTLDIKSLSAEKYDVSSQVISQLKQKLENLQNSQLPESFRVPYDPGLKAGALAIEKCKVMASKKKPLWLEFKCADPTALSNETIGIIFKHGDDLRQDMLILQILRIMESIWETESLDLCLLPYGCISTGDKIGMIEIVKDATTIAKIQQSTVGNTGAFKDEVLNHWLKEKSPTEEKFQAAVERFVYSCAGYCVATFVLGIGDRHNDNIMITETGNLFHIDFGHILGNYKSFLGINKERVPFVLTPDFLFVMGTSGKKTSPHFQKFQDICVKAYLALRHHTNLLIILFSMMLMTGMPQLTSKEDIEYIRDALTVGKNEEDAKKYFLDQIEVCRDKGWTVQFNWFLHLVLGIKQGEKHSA
T3 sequence (P42338 whole entry): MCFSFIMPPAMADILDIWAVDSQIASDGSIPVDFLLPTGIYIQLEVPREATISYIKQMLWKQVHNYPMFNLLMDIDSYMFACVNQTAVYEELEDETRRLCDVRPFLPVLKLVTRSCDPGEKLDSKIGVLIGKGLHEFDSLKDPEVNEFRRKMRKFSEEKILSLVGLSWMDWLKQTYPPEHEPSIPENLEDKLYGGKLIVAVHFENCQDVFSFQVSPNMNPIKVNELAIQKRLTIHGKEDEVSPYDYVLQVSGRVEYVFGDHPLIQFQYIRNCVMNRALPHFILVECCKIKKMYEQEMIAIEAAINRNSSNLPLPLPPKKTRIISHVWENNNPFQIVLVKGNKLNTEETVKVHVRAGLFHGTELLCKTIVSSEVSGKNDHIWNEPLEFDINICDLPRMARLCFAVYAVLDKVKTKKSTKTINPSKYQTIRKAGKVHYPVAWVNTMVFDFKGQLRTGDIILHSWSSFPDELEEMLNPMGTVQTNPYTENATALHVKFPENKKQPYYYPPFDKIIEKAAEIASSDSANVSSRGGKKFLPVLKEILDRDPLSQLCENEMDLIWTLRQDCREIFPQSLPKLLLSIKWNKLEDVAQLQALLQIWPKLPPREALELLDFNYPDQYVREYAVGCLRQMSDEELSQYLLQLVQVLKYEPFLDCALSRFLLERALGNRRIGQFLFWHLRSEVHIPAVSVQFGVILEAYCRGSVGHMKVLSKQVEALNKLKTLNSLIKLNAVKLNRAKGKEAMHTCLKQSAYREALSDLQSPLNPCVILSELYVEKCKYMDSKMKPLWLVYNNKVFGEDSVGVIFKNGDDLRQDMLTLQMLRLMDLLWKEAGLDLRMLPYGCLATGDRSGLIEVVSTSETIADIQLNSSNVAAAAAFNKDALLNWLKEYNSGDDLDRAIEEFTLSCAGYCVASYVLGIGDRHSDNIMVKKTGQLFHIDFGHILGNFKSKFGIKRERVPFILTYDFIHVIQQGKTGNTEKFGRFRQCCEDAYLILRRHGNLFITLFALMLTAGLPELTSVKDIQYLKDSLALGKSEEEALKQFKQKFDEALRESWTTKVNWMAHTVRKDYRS
T3 sequence (P27986 whole entry partner): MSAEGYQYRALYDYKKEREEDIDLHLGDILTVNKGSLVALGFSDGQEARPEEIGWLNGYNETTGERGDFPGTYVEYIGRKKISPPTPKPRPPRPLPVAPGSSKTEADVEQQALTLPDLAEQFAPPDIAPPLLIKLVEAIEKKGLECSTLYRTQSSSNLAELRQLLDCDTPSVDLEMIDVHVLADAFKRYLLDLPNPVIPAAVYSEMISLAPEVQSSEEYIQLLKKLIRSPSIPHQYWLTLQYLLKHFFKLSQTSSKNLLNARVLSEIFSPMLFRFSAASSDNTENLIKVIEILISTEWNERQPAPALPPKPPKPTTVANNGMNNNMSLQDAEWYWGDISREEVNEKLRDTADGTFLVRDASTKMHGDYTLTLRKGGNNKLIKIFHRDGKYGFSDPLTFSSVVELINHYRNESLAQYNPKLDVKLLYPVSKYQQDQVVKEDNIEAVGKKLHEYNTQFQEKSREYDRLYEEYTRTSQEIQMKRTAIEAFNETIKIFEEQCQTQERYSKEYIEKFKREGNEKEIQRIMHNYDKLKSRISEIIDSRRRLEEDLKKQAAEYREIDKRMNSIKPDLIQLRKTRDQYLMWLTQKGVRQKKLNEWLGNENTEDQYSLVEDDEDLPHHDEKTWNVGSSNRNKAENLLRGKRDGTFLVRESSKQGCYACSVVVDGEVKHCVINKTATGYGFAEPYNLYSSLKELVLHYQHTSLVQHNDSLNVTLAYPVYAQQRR
T1 sequence (O00329 whole entry): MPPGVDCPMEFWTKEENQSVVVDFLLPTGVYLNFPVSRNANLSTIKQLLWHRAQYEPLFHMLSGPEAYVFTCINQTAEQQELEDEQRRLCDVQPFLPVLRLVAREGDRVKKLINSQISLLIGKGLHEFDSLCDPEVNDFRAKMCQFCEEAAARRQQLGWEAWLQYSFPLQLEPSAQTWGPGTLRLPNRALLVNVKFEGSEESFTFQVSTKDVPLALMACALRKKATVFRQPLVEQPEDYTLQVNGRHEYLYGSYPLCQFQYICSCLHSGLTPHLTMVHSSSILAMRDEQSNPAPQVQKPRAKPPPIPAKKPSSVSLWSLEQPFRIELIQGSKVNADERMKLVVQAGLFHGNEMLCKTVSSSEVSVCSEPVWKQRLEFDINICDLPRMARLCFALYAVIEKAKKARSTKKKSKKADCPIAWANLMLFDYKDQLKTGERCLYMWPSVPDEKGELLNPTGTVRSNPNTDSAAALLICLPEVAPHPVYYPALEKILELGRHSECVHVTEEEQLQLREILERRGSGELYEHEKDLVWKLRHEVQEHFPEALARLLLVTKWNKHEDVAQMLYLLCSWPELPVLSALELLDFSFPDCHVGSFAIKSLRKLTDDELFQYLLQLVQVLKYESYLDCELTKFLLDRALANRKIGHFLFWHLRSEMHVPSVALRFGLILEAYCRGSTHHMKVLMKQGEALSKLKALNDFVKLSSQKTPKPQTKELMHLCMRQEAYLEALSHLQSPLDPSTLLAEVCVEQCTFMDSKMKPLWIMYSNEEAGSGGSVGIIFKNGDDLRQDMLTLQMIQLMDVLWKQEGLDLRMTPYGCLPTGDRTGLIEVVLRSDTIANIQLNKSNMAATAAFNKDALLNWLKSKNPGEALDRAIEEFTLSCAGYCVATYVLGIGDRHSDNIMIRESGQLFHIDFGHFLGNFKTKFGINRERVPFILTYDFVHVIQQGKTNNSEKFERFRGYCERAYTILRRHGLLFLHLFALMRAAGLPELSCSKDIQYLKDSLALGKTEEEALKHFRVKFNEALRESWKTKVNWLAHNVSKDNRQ
T1 sequence (P27986 whole entry partner): as the sequence (P27986 whole entry partner) above
T2 sequence (P42336 whole entry): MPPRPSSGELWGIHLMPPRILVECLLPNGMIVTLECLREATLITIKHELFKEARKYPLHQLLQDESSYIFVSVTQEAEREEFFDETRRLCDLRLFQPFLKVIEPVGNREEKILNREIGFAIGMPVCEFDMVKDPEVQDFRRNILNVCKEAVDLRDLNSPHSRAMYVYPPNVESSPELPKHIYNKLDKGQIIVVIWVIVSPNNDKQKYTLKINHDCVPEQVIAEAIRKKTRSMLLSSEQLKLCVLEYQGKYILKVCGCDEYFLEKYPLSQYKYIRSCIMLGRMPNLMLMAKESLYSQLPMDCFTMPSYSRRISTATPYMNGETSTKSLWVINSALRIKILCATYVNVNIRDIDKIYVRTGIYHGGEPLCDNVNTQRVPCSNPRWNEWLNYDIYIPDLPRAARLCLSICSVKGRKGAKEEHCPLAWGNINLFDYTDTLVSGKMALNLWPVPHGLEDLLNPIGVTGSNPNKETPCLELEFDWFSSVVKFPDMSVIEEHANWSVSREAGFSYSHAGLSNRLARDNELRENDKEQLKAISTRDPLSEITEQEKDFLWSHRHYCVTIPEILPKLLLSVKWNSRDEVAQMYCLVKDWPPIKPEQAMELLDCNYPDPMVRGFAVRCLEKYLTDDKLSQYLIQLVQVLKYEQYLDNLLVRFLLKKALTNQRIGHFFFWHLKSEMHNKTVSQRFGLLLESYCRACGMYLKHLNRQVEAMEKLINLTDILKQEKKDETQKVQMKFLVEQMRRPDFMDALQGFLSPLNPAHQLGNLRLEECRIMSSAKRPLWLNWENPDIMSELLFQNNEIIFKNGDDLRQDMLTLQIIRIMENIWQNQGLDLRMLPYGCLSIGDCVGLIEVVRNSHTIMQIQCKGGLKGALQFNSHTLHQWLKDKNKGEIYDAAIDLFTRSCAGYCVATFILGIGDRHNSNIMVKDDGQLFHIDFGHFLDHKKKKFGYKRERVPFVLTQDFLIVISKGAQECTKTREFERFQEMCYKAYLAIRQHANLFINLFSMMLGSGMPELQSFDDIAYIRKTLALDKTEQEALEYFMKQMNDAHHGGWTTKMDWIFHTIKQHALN
T2 sequence (P27986 whole entry partner): as the sequence (P27986 whole entry partner) above

SMILES	selectivity (PI3Kδ over the other PI3K subtypes), in words (PI3Kδ; PI3Kδ versus PI3Kα, PI3Kβ, PI3Kγ)	IC50 (PI3Kδ)	IC50 (PI3Kα)	IC50 (SU-DHL-5 lymphoma cells)	IC50 (PI3Kβ)	IC50 (PI3Kγ)
CC(Nc1ncnc(N)c1C#N)c1c(-c2cc(F)cc(F)c2)c(=O)c2cc(F)ccc2n1C (stereo not shown) [Comparative Example 1, 4-Amino-5-cyano-6-(1-(3-(3,5-difluorophenyl)-6-fluoro-1-methyl-4-oxo-1,4-dihydroquinoline-2-yl)ethylamino)pyrimidine, reference compound]	poor	20 nM	–	–	–	–
N#Cc1c(N)nc(N)nc1NCc1c(-c2ccccc2)oc2ccccc2c1=O [Example 2, 2,4-Diamino-5-cyano-6-(4-oxo-2-phenyl-4H-chromen-3-yl) methylaminopyrimidine]	–	13.5 nM	–	–	–	–
CC(Nc1ncnc(N)c1C#N)c1c(-c2ccccc2)oc2ccccc2c1=O (stereo not shown) [Example 3, 4-Amino-5-cyano-6-(1-(4-oxo-2-phenyl-4H-chromen-3-yl)ethylamino) pyrimidine]	–	17 nM	> 1000 nM	0.86 µM	> 1000 nM	> 1000 nM
CC(Nc1ncnc(N)c1C#N)c1c(-c2ccccc2)oc2c(Cl)cccc2c1=O (stereo not shown) [Example 5, 4-Amino-5-cyano-6-(1-(8-chloro-4-oxo-2-phenyl-4H-chromen-3-yl)ethylamino) pyrimidine]	–	11 nM	> 1000 nM	0.61 µM	> 1000 nM	> 1000 nM
CC(Nc1nc(N)nc(N)c1C#N)c1c(-c2ccccc2)oc2c(Cl)cccc2c1=O (stereo not shown) [Example 6, 2,4-Diamino-5-cyano-6-(1-(8-chloro-4-oxo-2-phenyl-4H-chromen-3-yl)ethylamino)pyrimidine]	–	9.5 nM	> 1000 nM	1.23 µM	881 nM	84 nM
CC(Nc1nc(N)nc(N)c1C#N)c1c(-c2ccccc2)oc2c(F)cccc2c1=O (stereo not shown) [Example 8, 2,4-Diamino-5-cyano-6-(1-(8-fluoro-4-oxo-2-phenyl-4H-chromen-3-yl)ethylamino) pyrimidine]	–	6.6 nM	> 1000 nM	1.02 µM	385 nM	134 nM
N#Cc1c(N)ncnc1NCc1c(-c2ccccc2)[nH]c2ccccc2c1=O [Example 15]	–	21 nM	> 1000 nM	4.94 µM	> 1000 nM	> 1000 nM
CC(Nc1nc(N)nc(N)c1C#N)c1c(-c2ccccc2)[nH]c2ccccc2c1=O (stereo not shown) [Example 22, 2,4-Diamino-5-cyano-6-((1-(4-oxo-2-phenyl-1,4-dihydroquinolin-3-yl)ethyl)amino)pyrimidine]	–	11 nM	675 nM	–	635 nM	60 nM

Stronger by IC50 (PI3Kδ), values ahead:

selectivity (PI3Kδ over the other PI3K subtypes), in words (PI3Kδ; PI3Kδ versus PI3Kα, PI3Kβ, PI3Kγ)	IC50 (PI3Kδ)	IC50 (PI3Kα)	IC50 (SU-DHL-5 lymphoma cells)	IC50 (PI3Kβ)	IC50 (PI3Kγ)	SMILES
–	5 nM	> 1000 nM	1.43 µM	> 1000 nM	> 1000 nM	CC(Nc1ncnc(N)c1C#N)c1c(-c2ccccc2)oc2c(F)cccc2c1=O (stereo not shown) [Example 7, 4-Amino-5-cyano-6-(1-(8-fluoro-4-oxo-2-phenyl-4H-chromen-3-yl)ethylamino) pyrimidine]
–	3.8 nM	219 nM	0.58 µM	139 nM	66 nM	CC(Nc1ncnc(N)c1C#N)c1c(-c2ccccc2)[nH]c2c(Cl)cccc2c1=O (stereo not shown) [Example 9, 4-Amino-5-cyano-6-((1-(8-chloro-4-oxo-2-phenyl-1,4-dihydroquinolin-3-yl)ethyl)amino)pyrimidine]
–	5.8 nM	> 1000 nM	1.11 µM	> 1000 nM	> 1000 nM	CCC(Nc1ncnc(N)c1C#N)c1c(-c2ccccc2)[nH]c2ccccc2c1=O (stereo not shown) [Example 13, 4-Amino-5-cyano-6-((1-(4-oxo-2-phenyl-1,4-dihydroquinolin-3-yl)propyl)amino)pyrimidine]
–	2 nM	336 nM	3.4 µM	99 nM	61 nM	N#Cc1c(N)nc(N)nc1NCc1c(-c2ccccc2)[nH]c2c(Cl)cccc2c1=O [Example 18]
–	1.4 nM	114 nM	–	60 nM	5.7 nM	CC(Nc1nc(N)nc(N)c1C#N)c1c(-c2ccccc2)[nH]c2c(Cl)cccc2c1=O (stereo not shown) [Example 23, 2,4-Diamino-5-cyano-6-((1-(8-chloro-4-oxo-2-phenyl-1,4-dihydroquinolin-3-yl)ethyl)amino)pyrimidine]
–	1.8 nM	127 nM	–	113 nM	21 nM	CC(Nc1nc(N)nc(N)c1C#N)c1c(-c2ccccc2)n(C)c2ccccc2c1=O (stereo not shown) [Example 25, 2,4-Diamino-5-cyano-6-((1-(1-methyl-4-oxo-2-phenyl-1,4-dihydroquinolin-3-yl)ethyl)amino) pyrimidine]
–	2.3 nM	> 1000 nM	–	972 nM	814 nM	CC(Nc1ncnc(N)c1C#N)c1c(-c2cccc(F)c2)n(C)c2ccccc2c1=O (stereo not shown) [Example 26, 4-Amino-5-cyano-6-((1-(1-methyl-4-oxo-2-(3-fluorophenyl)-1,4-dihydroquinolin-3-yl)ethyl)amino) pyrimidine]
–	1.4 nM	39 nM	–	38 nM	11 nM	CC(Nc1nc(N)nc(N)c1C#N)c1c(-c2ccccc2)n(C)c2c(Cl)cccc2c1=O (stereo not shown) [Example 27, 2,4-Diamino-5-cyano-6-((1-(8-chloro-1-methyl-4-oxo-2-phenyl-1,4-dihydroquinolin-3-yl)ethyl)amino)pyrimidine]
–	3.6 nM	> 1000 nM	–	> 1000 nM	155 nM	CC(Nc1nc(N)nc(N)c1C#N)c1c(-c2cccc(F)c2)oc2ccccc2c1=O (stereo not shown) [Example 30, 2,4-Diamino-5-cyano-6-(1-(2-(3-fluorophenyl)-4-oxo-4H-chromen-3-yl)ethylamino) pyrimidine]
–	4.8 nM	> 1000 nM	–	> 1000 nM	673 nM	CCC(Nc1nc(N)nc(N)c1C#N)c1c(-c2ccccc2)oc2ccccc2c1=O (stereo not shown) [Example 32, 2,4-Diamino-5-cyano-6-(1-(4-oxo-2-phenyl-4H-chromen-3-yl)propylamino) pyrimidine]
